One assay concerns the target T1, Y2 receptor (Homo sapiens, UniProt P49146).
T1 sequence (P49146 1-381): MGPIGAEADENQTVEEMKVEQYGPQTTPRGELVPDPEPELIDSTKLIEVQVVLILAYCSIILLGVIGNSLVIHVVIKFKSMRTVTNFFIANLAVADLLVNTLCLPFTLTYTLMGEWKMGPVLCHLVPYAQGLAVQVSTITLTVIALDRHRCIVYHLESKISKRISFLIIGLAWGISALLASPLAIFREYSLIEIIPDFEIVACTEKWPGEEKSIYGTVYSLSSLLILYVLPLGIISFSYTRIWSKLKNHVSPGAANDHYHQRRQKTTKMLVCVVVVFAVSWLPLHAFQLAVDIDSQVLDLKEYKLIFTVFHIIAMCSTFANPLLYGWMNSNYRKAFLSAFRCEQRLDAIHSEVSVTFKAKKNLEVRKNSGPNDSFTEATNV
The experiment in a line: Y2 receptor binding assay ([125I]PYY, membrane protein). To be noted: read-out: hNPY2 IC50. How it is done: B. Human Y2 and Y4/PP1 Receptor Binding Assays
Binding assays were performed on GF/C Millipore 96-well plates pretreated with 0.02% polyethylenimine. The binding buffer for rat Y2 binding is Krebs-Ringer bicarbonate (pH 7.4) containing 0.01% BSA and 0.005% bacitracin. Samples consist of membrane protein, 25 pM [1251]PYY and drug dilution. Nonspecific binding is defined by 1 μM NPY. The binding buffer for human Y4/PP1 binding consists of 137 mM NaCl, 5.4 mM KCl, 0.44 mM KH2PO4, 1.26 mM CaCl2, 0.81 mM MgSO4, 20 mM HEPES, 1 mM dithiothreitol, 0.1% bacitracin, 100 mg/l streptomycin sulfate, 1 mg/l aprotinin, 10 mg/ml soybean trypsin inhibitor and 0.3% BSA, pH 7.4. Samples consist of membrane protein, 50 pM human [1251]human PP (hPP: NEN DuPont, Boston, Mass.) and drug dilution. 1 μM hPP is used to define nonspecific binding.
After a 2 hour incubation at room temperature with constant mixing, the samples are aspirated on a vacuum manifold, and rinsed with ice-cold binding buffer. The amount of radioactivity in each well is quantitated with either gamma counting or liquid scintillation.

Another assay deals with T2, Human NPY5 receptor (Homo sapiens, UniProt Q15761).
T2 sequence (Q15761 1-445): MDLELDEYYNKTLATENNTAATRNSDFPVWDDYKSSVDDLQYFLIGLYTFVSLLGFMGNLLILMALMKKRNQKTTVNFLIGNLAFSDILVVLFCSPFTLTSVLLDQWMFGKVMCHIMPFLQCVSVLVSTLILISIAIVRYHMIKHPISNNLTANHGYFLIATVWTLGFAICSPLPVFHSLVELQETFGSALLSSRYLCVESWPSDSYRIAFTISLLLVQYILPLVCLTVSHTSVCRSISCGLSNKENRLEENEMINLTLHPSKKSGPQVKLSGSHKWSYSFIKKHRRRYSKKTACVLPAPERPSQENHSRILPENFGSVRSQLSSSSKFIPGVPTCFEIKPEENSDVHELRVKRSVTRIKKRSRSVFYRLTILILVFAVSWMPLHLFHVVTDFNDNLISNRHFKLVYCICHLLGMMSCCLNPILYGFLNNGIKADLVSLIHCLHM
The experiment in a line: Human NPY5 receptor binding assay ([125I]PYY, membrane protein). How it is done: C. Human and Rat NPY5 Receptor Binding Assays
Binding assays are performed on GF/C Millipore 96well plates pretreated with 0.02% polyethylenimine. The binding buffer is 25 mM Tris, 120 mM NaCl, 5 mM KCl, 1.2 mM KH2PO4, 2.5 mM CaCl2, 1.2 mM MgSO4, 0.1% BSA and 0.5 mg/ml bacitracin, pH 7.4. Samples consist of membrane protein, 75-100 pM [125I]PYY (porcine, NEN-DuPont) and drug dilution. Nonspecific binding is defined by 1 μM PYY. After a 2 hour incubation at room temperature with constant mixing, the samples are aspirated on a vacuum manifold, and rinsed with ice-cold binding buffer. The amount of radioactivity in each well is quantitated with either gamma counting or liquid scintillation.

Setting [1] is: [125I]PYY binding, membrane protein.
[2] abbreviates: [125I]PYY binding, read-out: hNPY5 IC50.

Where two headings read alike, the source gives them in different places. Bounds are passed on as bounds.

As a reminder, the IC50 is the concentration needed to halve the response being measured.

For `O=C(CN1CCC(CCCC2CCNCC2)CC1)Nc1ccc(C(=O)c2ccccc2)cc1` [Compound 37, N-(4-Benzoyl-phenyl)-2-[4-(3-piperidin-4-yl-propyl)-piperidin-1-yl]-acetamide], the values for the 50% inhibitory concentration (IC50) on Y2 receptor (setting [1]) and on Human NPY5 receptor (setting [2]) were over 5 µM and over 10 µM, respectively.

With `O=C(CN1CCC(Cc2ccccc2)CC1)Nc1ccc(C(=O)c2ccccc2)cc1` [Compound 38, N-(4-Benzoyl-phenyl)-2-(4 benzyl-piperidin-1-yl)-acetamide], the IC50 is over 5 µM at Y2 receptor (setting [1]) and 8.5 µM on Human NPY5 receptor (setting [2]).

Turning to `O=C(CN1CCC(N2CCCCC2)CC1)Nc1ccc(C(=O)c2ccccc2)cc1` [Compound 39, N-(4-Benzoyl-phenyl)-2-[1,4′]bipiperidinyl-1′-yl-acetamide], the values for the IC50 at Y2 receptor (setting [1]) and at Human NPY5 receptor (setting [2]) were over 5 µM and 2.1 µM, respectively.

`O=C(CN1CCC(C(=O)O)CC1)Nc1ccc(C(=O)c2ccccc2)cc1` [Compound 40, 1-[(4-Benzoyl-phenylcarbamoyl)-methyl]-piperidine-4-carboxylic acid]: the results for the IC50 at Y2 receptor (setting [1]) and on Human NPY5 receptor (setting [2]) were over 5 µM and over 10 µM, respectively.

As to `O=C(CN1CCC(O)(c2ccccc2)CC1)Nc1ccc(C(=O)c2ccccc2)cc1` [Compound 41, N-(4-Benzoyl-phenyl)-2-(4-hydroxy-4-phenyl-piperidin-1-yl)-acetamide], the IC50 is over 5 µM at Y2 receptor (setting [1]) and 0.06 µM on Human NPY5 receptor (hNPY5 IC50, [125I]PYY binding).

For `O=C(CN1CCC(O)CC1)Nc1ccc(C(=O)c2ccccc2)cc1` [Compound 42, N-(4-Benzoyl-phenyl)-2-(4-hydroxy-piperidin-1-yl)-acetamide], the values for the IC50 at Y2 receptor (setting [1]) and at Human NPY5 receptor (setting [2]) were over 5 µM and 1.6 µM, respectively.

Turning to `O=C(CNCC1CCNCC1)Nc1ccc(C(=O)c2ccccc2)cc1` [Compound 43, N-(4-Benzoyl-phenyl)-2-[(piperidin-4-ylmethyl)-amino]-acetamide], the IC50 is over 5 µM on Y2 receptor (setting [1]) and over 10 µM on Human NPY5 receptor (setting [2]).

As for `N#CC1(c2ccccc2)CCN(CC(=O)Nc2ccc(C(=O)c3ccccc3)cc2)CC1` [Compound 44, N-(4-Benzoyl-phenyl)-2-(4-cyano-4-phenyl-piperidin-1-yl)-acetamide], the figures for the IC50 on Y2 receptor and on Human NPY5 receptor (setting [2]) were over 5 µM and 0.093 µM, respectively.

In the case of `O=C(CN1CCC(N2CCCC2)CC1)Nc1ccc(C(=O)c2ccccc2)cc1` [Compound 45, N-(4-Benzoyl-phenyl)-2-(4-pyrrolidin-1-yl-piperidin-1-yl)-acetamide], the IC50 on Y2 receptor (setting [1]) is over 5 µM; on Human NPY5 receptor (setting [2]), 8.5 µM.

`CNC1(C(N)=O)CCN(CC(=O)Nc2ccc(C(=O)c3ccccc3)cc2)CC1` [Compound 46, 1-[(4-Benzoyl-phenylcarbamoyl)-methyl]-4-methylamino-piperidine-4-carboxylic acid amide]: the IC50 was over 5 µM at Y2 receptor (setting [1]) and 0.005 µM on Human NPY5 receptor (setting [2]).

On to `NC(=O)C1(Nc2ccccc2)CCN(CC(=O)Nc2ccc(C(=O)c3ccccc3)cc2)CC1` [Compound 47, 1-[(4-Benzoyl-phenylcarbamoyl)-methyl]-4-phenylamino-piperidine-4-carboxylic acid amide], for which the results for the IC50 on Y2 receptor (setting [1]) and on Human NPY5 receptor (setting [2]) were over 5 µM and 1.2 µM, respectively.

For the molecule `CCNC1(C(N)=O)CCN(CC(=O)Nc2ccc(C(=O)c3ccccc3)cc2)CC1` [Compound 48, 1-[(4-Benzoyl-phenylcarbamoyl)-methyl]-4-ethylamino-piperidine-4-carboxylic acid amide], the IC50 at Y2 receptor (setting [1]) was over 5 µM; on Human NPY5 receptor (setting [2]), 0.02 µM.

For the molecule `CN(C)C1CCN(CC(=O)Nc2ccc(C(=O)c3ccccc3)cc2)CC1` [Compound 49, N-(4-Benzoyl-phenyl)-2-(4-dimethylamino-piperidin-1-yl)-acetamide], the IC50 on Y2 receptor (setting [1]) was over 5 µM; on Human NPY5 receptor (setting [2]) it was 8.8 µM.

As for `CC1CCN(CC(=O)Nc2ccc(C(=O)c3ccccc3)cc2)CC1` [Compound 50, N-(4-Benzoyl-phenyl)-2-(4-methyl-piperidin-1-yl)-acetamide], the IC50 is over 5 µM on Y2 receptor (setting [1]) and 2.2 µM on Human NPY5 receptor (setting [2]).

As to `CC1(C)CCN(CC(=O)Nc2ccc(C(=O)c3ccccc3)cc2)CC1` [Compound 51, N-(4-Benzoyl-phenyl)-2-(4,4-dimethyl-piperidin-1-yl)-acetamide], the values for the IC50 on Y2 receptor (setting [1]) and at Human NPY5 receptor (setting [2]) were over 5 µM and 3.3 µM, respectively.

As to `O=C(CN1CCC(CCC2CCNCC2)CC1)Nc1ccc(C2CCCCC2)cc1` [Compound 54, N-(4-Cyclohexyl-phenyl)-2-[4-(2-piperidin-4-yl-ethyl)-piperidin-1-yl]-acetamide], the IC50 on Y2 receptor (setting [1]) was over 5 µM; on Human NPY5 receptor (setting [2]), 7.3 µM.

As for `O=C(CN1CCC(CCC2CCNCC2)CC1)Nc1ccc(C(=O)c2ccccc2)cc1` [Compound 55, n-(4-Benzoyl-phenyl)-2-[4-(2-piperidin-4-ylethyl)-piperidin-1-yl]-acetamide], the IC50 on Y2 receptor (setting [1]) is over 5 µM; on Human NPY5 receptor (setting [2]), over 10 µM.

In the case of `CC(=O)NCC1(c2ccccc2)CCN(CC(=O)Nc2ccc(C(=O)c3ccccc3)cc2)CC1` [Compound 56, 2-[4-(Acetylamino-methyl)-4-phenyl-piperidin-1-yl]-N-(4-benzoyl-phenyl)-acetamide], the half-inhibitory concentration (IC50) was over 5 µM on Y2 receptor (setting [1]) and 0.208 µM at Human NPY5 receptor (setting [2]).

As for `N#CC(c1ccccc1)C1CCN(CC(=O)Nc2ccc(C(=O)c3ccccc3)cc2)CC1` (stereo not shown) [Compound 57, N-(4-Benzoyl-phenyl)-2-[4-(cyano-phenyl-methyl)-piperidin-1-yl]-acetamide], the figures for the IC50 at Y2 receptor (setting [1]) and on Human NPY5 receptor (setting [2]) were over 5 µM and 0.005 µM, respectively.

As to `O=C(CN1CCC2(CC1)C(=O)NCN2c1ccccc1)Nc1ccc(C(=O)c2ccccc2)cc1` [Compound 58, N-(4-Benzoyl-phenyl)-2-(4-oxo-1-phenyl-1,3,8-triaz-spiro[4.5]dec-8-yl)-acetamide], the IC50 at Y2 receptor (setting [1]) is over 5 µM; at Human NPY5 receptor (setting [2]), 2 µM.

As to `CC(O)C1CCN(CC(=O)Nc2ccc(C3CCCCC3)cc2)CC1` (stereo not shown) [Compound 59, N-(4-Cyclohexyl-phenyl)-2-[4-(1-hydroxy-ethyl)-piperidin-1-yl]-acetamide], the half-maximal inhibitory concentration (IC50) on Y2 receptor (setting [1]) is over 5 µM; on Human NPY5 receptor (setting [2]) it was 0.65 µM.

As to `O=C(CN1CCC(O)(CCCc2ccccc2)CC1)Nc1ccc(C(=O)c2ccccc2)cc1` [Compound 60, N-(4-Benzoyl-phenyl)-2-[4-hydroxy-4-(3-phenyl-propyl)-piperidin-1-yl]-acetamide], the IC50 on Y2 receptor (setting [1]) was over 5 µM; at Human NPY5 receptor (setting [2]), 4.2 µM.

As for `O=C(CN1CCC(O)(CCCc2ccccc2)CC1)Nc1ccc(C2CCCCC2)cc1` [Compound 61, N-(4-Cyclohexyl-phenyl)-2-[4-hydroxy-4-(3-phenyl-propyl)-piperidin-1-yl]-acetamide], the results for the IC50 at Y2 receptor (setting [1]) and on Human NPY5 receptor (setting [2]) were over 5 µM and 9.5 µM, respectively.

With `O=C(CN1CCC(O)(c2cccc(C(F)(F)F)c2)CC1)Nc1ccc(C(=O)c2ccccc2)cc1` [Compound 63, N-(4-Benzoyl-phenyl)-2-[4-hydroxy-4-(3-trifluoromethyl-phenyl)-piperidin-1-yl]-acetamide], the IC50 is over 5 µM at Y2 receptor (setting [1]) and 0.57 µM on Human NPY5 receptor (setting [2]).

In the case of `CN(C)C1(C(N)=O)CCN(CC(=O)Nc2ccc(C(=O)c3ccccc3)cc2)CC1` [Compound 64, 1-[(4-Benzoyl-phenylcarbamoyl)-methyl]-4-dimethylamino-piperidine-4-carboxylic acid amide], the IC50 at Y2 receptor (setting [1]) was over 5 µM; at Human NPY5 receptor (setting [2]) it was 4.8 µM.

For `CCCOC1(c2ccccc2)CCN(CC(=O)Nc2ccc(C(=O)c3ccccc3)cc2)CC1` [Compound 66, N-(4-Benzoyl-phenyl)-2-(4-phenyl-4-propoxy-piperidin-1-yl)-acetamide], the IC50 at Y2 receptor (setting [1]) is over 5 µM; on Human NPY5 receptor (setting [2]) it was 0.78 µM.
